The source of these data is ChEMBL document CHEMBL1201862, “PubChem BioAssay data set” (2004).

Activity calls are given as the source filed them.

Paired box protein Pax-8, sequence (Q06710 whole entry): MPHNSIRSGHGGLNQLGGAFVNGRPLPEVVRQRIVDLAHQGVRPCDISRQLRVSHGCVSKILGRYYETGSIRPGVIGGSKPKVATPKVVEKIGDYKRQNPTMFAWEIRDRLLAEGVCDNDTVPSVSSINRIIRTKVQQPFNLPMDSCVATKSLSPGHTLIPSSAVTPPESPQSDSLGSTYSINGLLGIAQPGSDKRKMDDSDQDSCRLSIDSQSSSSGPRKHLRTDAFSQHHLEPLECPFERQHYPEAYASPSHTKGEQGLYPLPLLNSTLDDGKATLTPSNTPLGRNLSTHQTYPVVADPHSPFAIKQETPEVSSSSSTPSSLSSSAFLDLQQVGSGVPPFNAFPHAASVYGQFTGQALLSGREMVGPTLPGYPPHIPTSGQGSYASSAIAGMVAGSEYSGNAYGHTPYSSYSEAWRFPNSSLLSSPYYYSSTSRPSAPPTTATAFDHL

In the first test the target is T1, Corticotropin-releasing factor receptor 2/Corticotropin-releasing factor-binding protein (Homo sapiens, UniProt P24387+Q13324).
T1 sequence (Q13324 whole entry): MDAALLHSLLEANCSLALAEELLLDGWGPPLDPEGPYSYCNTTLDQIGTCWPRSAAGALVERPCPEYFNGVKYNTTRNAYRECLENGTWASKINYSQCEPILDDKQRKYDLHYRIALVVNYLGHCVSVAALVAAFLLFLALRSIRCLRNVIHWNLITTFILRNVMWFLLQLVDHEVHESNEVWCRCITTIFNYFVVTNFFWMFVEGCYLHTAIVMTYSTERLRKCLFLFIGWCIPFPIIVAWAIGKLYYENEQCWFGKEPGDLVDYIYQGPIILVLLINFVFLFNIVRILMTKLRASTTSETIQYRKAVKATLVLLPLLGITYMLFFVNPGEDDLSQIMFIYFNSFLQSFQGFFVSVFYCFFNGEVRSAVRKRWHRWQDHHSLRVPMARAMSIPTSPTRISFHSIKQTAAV
T1 sequence (P24387 whole entry): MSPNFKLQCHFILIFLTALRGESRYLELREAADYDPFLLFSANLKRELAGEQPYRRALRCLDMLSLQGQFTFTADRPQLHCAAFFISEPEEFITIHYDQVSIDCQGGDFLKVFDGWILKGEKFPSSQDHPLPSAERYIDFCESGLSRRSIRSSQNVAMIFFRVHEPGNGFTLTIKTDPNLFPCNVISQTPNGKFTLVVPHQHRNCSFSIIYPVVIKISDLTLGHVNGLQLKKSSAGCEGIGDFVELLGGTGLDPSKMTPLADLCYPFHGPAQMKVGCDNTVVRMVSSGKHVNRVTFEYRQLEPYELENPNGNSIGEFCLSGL
Put plainly: Dose Response confirmation of uHTS hits for small molecule antagonists of the CRF-binding protein and CRF-R2 receptor complex. Format: functional. Conditions: read-out: IC50_Mean.
For the compound `COc1ccc(S(=O)(=O)NNC(=O)c2csc(-n3nc(C)cc3C(F)(F)F)n2)cc1`, the IC50 is > 47.1 µM (inactive).

Another test concerns the target T1, Corticotropin-releasing factor receptor 2/Corticotropin-releasing factor-binding protein. Put plainly: activators of CRF receptor 2 with binding protein – uHTS hits, confirmation (AID 602473). The test is classed as functional. The settings on record: read-out: EC50_Mean.
For the compound `CN(C)c1ccc(/C=C(/C#N)C(=O)Nc2nc3c(s2)CCN(Cc2ccccc2)C3)cc1`, the EC50 is 2.1 µM (active).

As to `COc1ccc(S(=O)(=O)NNC(=O)c2csc(-n3nc(C)cc3C(F)(F)F)n2)cc1`, the EC50 is > 53 µM (inactive).

A further test has as its target Paired box protein Pax-8 (Homo sapiens, UniProt Q06710). Put plainly: PAX8 transcriptional activity inhibition in RMG-I – RMG-I cells, luciferase, cherry-pick, dose response (AID 687027).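 Further: luciferase reporter driven by Pax8 target thyroperoxidase promoter measured by SteadyGlo luminescence.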 The test is classed as functional, cell-based.
Details: not given
On to `C[C@H]1CCCCO[C@H](CN(C)C(=O)Nc2ccc(C(F)(F)F)cc2)[C@@H](C)CN([C@@H](C)CO)C(=O)c2cc(NS(=O)(=O)c3cccs3)ccc2O1`, for which the AC50 was 7.75 µM (active).

On to `C=C(C)c1cccc(C(C)(C)NC(=O)N2CCN(c3ccccc3OC)CC2)c1`, for which the AC50 was 65.2 µM (active).

In the case of `C[C@@H]1CN([C@@H](C)CO)C(=O)c2cccc(NC(=O)c3ccncc3)c2O[C@@H]1CN(C)S(=O)(=O)c1cccs1`, the AC50 is 69.5 µM (active).

Regarding `C[C@H](O)[C@@H]1CN2CCc3c([nH]c4ccc(-c5ccc6c(c5)OCO6)cc34)[C@@H]2C[C@@H]1N(C)C(=O)NC1CCCCC1`, the AC50 was 5.9 µM (active).

`COc1cc(/C=N/NC(=O)c2ccc(CN3C(=O)c4cccc5cccc3c45)cc2)cc(OC)c1O`: the AC50 is 0.286 µM (active).

For the compound `COC(=O)[C@]12CCCCC=C1N(Cc1ccc(Cl)cc1Cl)C(=O)[C@H](CC(=O)N1CCN(C(=O)c3ccco3)CC1)C2`, the AC50 is 1.33 µM (active).

A further test deals with T2, Protein skinhead-1 (Caenorhabditis elegans, UniProt P34707).
T2 sequence (P34707 whole entry): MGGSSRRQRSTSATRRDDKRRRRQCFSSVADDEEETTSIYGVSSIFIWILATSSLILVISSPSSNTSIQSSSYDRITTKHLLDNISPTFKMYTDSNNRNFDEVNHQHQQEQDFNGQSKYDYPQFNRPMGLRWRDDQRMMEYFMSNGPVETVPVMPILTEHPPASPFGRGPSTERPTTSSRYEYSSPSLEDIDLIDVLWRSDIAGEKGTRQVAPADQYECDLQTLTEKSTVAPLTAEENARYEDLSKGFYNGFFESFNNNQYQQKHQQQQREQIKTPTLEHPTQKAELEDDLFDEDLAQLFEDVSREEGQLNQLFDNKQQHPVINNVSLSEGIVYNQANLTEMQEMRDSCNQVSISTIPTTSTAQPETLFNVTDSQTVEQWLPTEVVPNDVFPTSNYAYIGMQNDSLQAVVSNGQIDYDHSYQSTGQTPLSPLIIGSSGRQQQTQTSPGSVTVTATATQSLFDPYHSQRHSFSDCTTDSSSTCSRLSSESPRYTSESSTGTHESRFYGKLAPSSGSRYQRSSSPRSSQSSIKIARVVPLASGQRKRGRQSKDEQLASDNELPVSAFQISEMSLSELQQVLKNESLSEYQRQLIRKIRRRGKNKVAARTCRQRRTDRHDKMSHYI
Format: functional.
Details: not given
On to `N#C/C(=C\c1cccnc1)c1ccc(Br)cc1`, for which the IC50 was > 100 µM (inactive).

In the case of `O=c1c2cc(-c3ccccc3)sc2ncn1/N=C/c1ccco1`, the IC50 was 22.1 µM (active).

For `COc1nc(-c2ccccc2)ccc1-c1noc(-c2ccco2)n1`, the IC50 is > 100 µM (inactive).

With `O=[N+]([O-])c1ccc(COc2cccc3cccnc23)cc1`, the IC50 is > 100 µM (inactive).

As for `CN(C)c1ccc(/C=C(/C#N)C(=O)Nc2nc3c(s2)CCN(Cc2ccccc2)C3)cc1`, the IC50 was > 100 µM (inactive).

Regarding `C=CCN(c1ccc(C(=O)NC(C)C)cc1)S(C)(=O)=O`, the IC50 was > 100 µM (inactive).

On to `CCn1c2ccc(F)cc2c2nc3ccccc3nc21`, for which the IC50 was > 100 µM (inactive).

Turning to `Cc1cc(C(=O)CN2C(=O)NC3(CCCc4ccccc43)C2=O)c(C)n1Cc1ccccc1` (stereo not given), the IC50 is > 100 µM (inactive).

Turning to `CC(=O)NCCc1cc2cc(C)c(C)cc2nc1O`, the IC50 is > 100 µM (inactive).

Another test relates to H4. Put plainly: Luminescence Cell-Based Dose Response HTS to Identify Activators of 5'UTR Stem-Loop Driven Prion Protein mRNA Translation in H4 Neuroglioblastoma Cells. [Related pubchem assays: 1829 (Project Summary), 1814 (Primary HTS)]. Format: functional. Conditions: Homo sapiens.
Take `O=c1c2cc(-c3ccccc3)sc2ncn1/N=C/c1ccco1`: the EC50 is 56.4 µM (active).

Test system in a further test: not listed separately
Put plainly: Luminescence Cell-Based Dose Response HTS to Identify Activators of Luciferase Translation or Activity in H4 […] Cells. [Related pubchem assays: 1829 (Project Summary), 1814 (Primary HTS)]. Format: functional.
Details: not given
For the compound `O=c1c2cc(-c3ccccc3)sc2ncn1/N=C/c1ccco1`, the EC50 was 14.8 µM (active).

A word on the AC50: it is the concentration giving half of the maximal activity seen.
